The values below come from US5650395A, “Treatment of pulmonary hypertension” (priority 1995, dated 1997).

Where a SMILES comes first, the peptide text is derived from it. Where no end group is shown, it is not given here. [ ]: non-standard residue; d: D form. dPhe(F5) = N[C@H](Cc1c(F)c(F)c(F)c(F)c1F)C(=O)O

One series has as its system pulmonary haemodynamics. To be noted: wide range of experimental conditions; cited from earlier work.
Series [1] concerns isolated pulmonary arteries. The following applies: cited from earlier work.
In series [2] the target is T1, GRP receptor (Rattus norvegicus, UniProt P52500).
T1 construct: endogenous in cells; host or cells: Rat AR42J cells
The experiment in a line: Calcium mobilization assay in AR42J cells (Fura-2AM). It counts as cell-based. To be noted: for increase of intracellular calcium concentration: peptide alone at 10 nM, AR42J cells. On the procedure: A working example follows:
Rat AR42J cells were cultured in DMEM medium containing 10% fetal bovine serum (Sigma, St. Louis, Mo.) in an atmosphere of 5% CO2 and 95% air at 37° C. After 5 days of culture, the cells were harvested by incubating in a 0.3% EDTA/phosphate buffered saline solution (Sigma, St. Louis, Mo.) (25° C.) and washed twice by centrifugation. The washed cells were resuspended in Hank's-buffered saline solution (HBSS) (Sigma, St. Louis, Mo.) for loading of the fluorescent Ca^2+ indicator Fura-2AM (Molecular Probes, Eugene, Oreg.). Cell suspensions of approximately 10^6 cells/ml were incubated with 2 μM Fura-2AM for 30 min at 25° C. Unloaded Fura-2AM was removed by centrifugation (twice) in HBSS, and the final cell suspensions were transferred to a spectrofluorometer (Hitachi F-2000, Tokyo, Japan) equipped with a magnetic stirring mechanism and a temperature-regulated cuvette holder. After equilibration to 37° C., a test peptide or a known GRP […] was added for measurement of Ca^2+ mobilization. The excitation and emission wavelengths were 340 and 510 nm, respectively.
Background: Calcium assays in cells follow changes in intracellular calcium, usually with a dye or a luminescent sensor.

For series [3], the system named is patient with pulmonary hypertension. As to the kind of experiment: Infusion in a patient with pulmonary hypertension secondary to liver disease (Swan-Ganz catheterization). It counts as in vivo, human. An excerpt: BIM-26226, a bombesin antagonist, was further administered to a patient to test its efficacy in lowering the pulmonary systolic or diastolic pressure.
The patient, complained of increasing shortness of breath under moderate exertion. […] A clinical diagnosis of pulmonary hypertension, secondary to liver disease, was made.
An 8 G french introducer (Arrow, Reading, Pa.) was inserted into the right internal jugular vein of the patient. A 7 G french triple lumen-balloon inflation lumen Swan-Ganz line (Abbot, N. Chicago, Ill.) was inserted through the introducer. The catheter was first floated through the right atrium and ventricle into the pulmonary artery, and was then connected to a Hewlett Packard monitor (Model 66s, M1166A) using modules M1006A, M1020A, 1029A, 1008A, and M1166A. Measurements of central venous pressure, pulmonary artery pressure, mean pulmonary pressure, cardiac index, cardiac output, and pulmonary vascular resistance were analyzed directly. A 20 G arterial line was inserted into the left radial artery (Arrow, Reading, Pa.) for measurement of systemic blood pressure and blood gas partial pressure estimations.
The study was conducted in two phases. The placebo phase, which lasted 24 hours, consisted of an infusion of normal saline (0.9% NaCl) at a constant rate of 50 ml/hr. The active phase consisted of an infusion of BIM-26226 in increasing concentrations. BIM-26226 was supplied as lyophilized powder. BIM-26226 was reconstituted in water, and then diluted in normal saline initially to give an infusion concentration of 5 μg/kg/hr. The concentration was increased every four hours to a maximum of 200 mcg/kg/hr. BIM-26226 was administered through the jugular line at a constant infusion rate of 50 ml/hr. Observations as detailed above were recorded at least hourly, though more often if indicated. In addition, blood samples were taken every four hours for biochemical profile, hematological screening, and both peripheral and central GRP levels. The GRP level samples were collected on ice, centrifuged, and snap-frozen. Analysis on the GRP levels was performed using an established radioimmunoassay.
FIG. 1 summarizes the study. The pulmonary systolic and diastolic pressures are compared between both the infusion of the saline placebo (Plac sys and Plac dias) and BIM-26226 (BIM sys and BIM dias). The doses of BIM-26226 administered and the administration scheme are shown at the top of FIG. 1, e.g., 5 μg/kg/hr four hours initially.

For series [4], the target named is T1, GRP receptor. The experiment in a line: GRP receptor binding assay ([125I-Tyr4]bombesin, AR42J cell membranes). To be noted: 30 min, 4° C., read-out: IC50 (concentration required to inhibit 50% of specific binding of [125I-Tyr4]bombesin). How it is done:
Membranes for the GRP receptor binding assay were obtained by homogenizing cultured AR42J cells (ATCC No. CRL-1492; American Type Culture Collection, Rockville, Md.) using a Polytron homogenizer (Brinkman Instruments, Westchester, N.Y.) at a setting of 6 for 15 sec. in an ice-cold 50 mM Tris-HCl buffer (Buffer A; Sigma, St. Louis, Mo.). See Singh, et al., 258 Am. J. Physiol. […] (1990). The homogenate was centrifuged twice at 39,000×g (10 min.) with an intermediate resuspension in fresh Buffer A. The final pellets were resuspended in Buffer A containing 0.1 mg/ml bacitracin and 0.1% bovine serum albumin (Buffer B) and held on ice for the receptor binding assay. Both bacitracin and bovine serum albumin were purchased from Sigma, St. Louis, Mo. Aliquots (0.4 ml) of the cell suspension were incubated with 0.05 ml of [^[…] ] bombesin (~2200 Ci/mmol; New England Nuclear, Boston, Mass.) in Buffer B and 0.05 ml of the test peptide (e.g., BIM-26226) at various concentrations (e.g., 0M to 10^-6 M) in Buffer B. […] Louis, Mo.). The filters were then washed three times with 5 ml aliquots of ice-cold Buffer A. Specific binding was defined as the total [^[…] ]bombesin bound in the presence of the test peptide minus that bound in the presence of 1 μM unlabeled GRP. […] BIM-26226, thus, has a high affinity for the GRP receptor. In other words, it is a GRP ligand.

T1 sequence (P52500 whole entry): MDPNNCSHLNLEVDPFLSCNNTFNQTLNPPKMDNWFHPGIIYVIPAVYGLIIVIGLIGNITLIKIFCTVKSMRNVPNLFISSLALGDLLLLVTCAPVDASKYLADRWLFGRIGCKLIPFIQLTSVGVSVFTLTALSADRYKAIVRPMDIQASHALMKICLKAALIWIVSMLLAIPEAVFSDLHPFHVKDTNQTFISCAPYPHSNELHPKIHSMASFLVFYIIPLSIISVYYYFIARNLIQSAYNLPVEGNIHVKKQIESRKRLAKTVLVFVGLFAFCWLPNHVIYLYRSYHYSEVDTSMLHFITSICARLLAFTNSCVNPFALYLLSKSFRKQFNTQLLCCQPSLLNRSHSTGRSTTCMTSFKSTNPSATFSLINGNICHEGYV

For the compound `CSCC[C@H](NC(=O)[C@H](CC(C)C)NC(=O)[C@H](Cc1cnc[nH]1)NC(=O)CNC(=O)[C@@H](NC(=O)[C@H](C)NC(=O)[C@H](Cc1c[nH]c2ccccc12)NC(=O)[C@H](CCC(N)=O)NC(=O)[C@H](CC(N)=O)NC(=O)CNC(=O)[C@H](CC(C)C)NC(=O)[C@H](CCCN=C(N)N)NC(=O)[C@H](CCC(N)=O)NC(=O)[C@@H]1CCC(=O)N1)C(C)C)C(N)=O` [Bombesin], the “in vivo pulmonary haemodynamic effect” value with pulmonary haemodynamics was “neither bombesin nor GRP, under a wide range of experimental conditions, have any demonstrable in vivo pulmonary haemodynamic effect”. Besides, the “effect on isolated pulmonary arteries” value in series [1] is reported as “not to have an effect”. The “increase of intracellular calcium concentration” value on GRP receptor [2] turned out to be 505 nM.
Consider `COC(=O)[C@H](CC(C)C)NC(=O)[C@H](Cc1c[nH]cn1)NC(=O)[C@@H](C)NC(=O)[C@@H](NC(=O)[C@H](C)NC(=O)[C@H](Cc1c[nH]c2ccccc12)NC(=O)[C@H](CCC(N)=O)NC(=O)[C@H](N)Cc1c(F)c(F)c(F)c(F)c1F)C(C)C` [BIM-26226, H-D-F5 -Phe-Gln-TrP-Ala-Val-D-Ala-His-Leu-O-CH3] (H-[dPhe(F5)]QWAV[dA]HL-OMe), for which the adverse events entry in series [3] (active phase of infusion) is reported as “Other than a mild urticarial response during the early active phase, the patient had no adverse events”. This compound showed a pulmonary diastolic pressure in series [3] (infusion rate of 200 μg/kg/hr, from 35 mm Hg) of 42 mm Hg. Besides, in series [3] (infusion rate of 200 μg/kg/hr, from 90 mm Hg), the pulmonary systolic pressure is listed as 55 mm Hg. Moreover, the “infusion rate at which pulmonary systolic pressure started to decrease” value in series [3] (intravenous infusion, increasing doses every four hours) was 25 µg/kg/h. Also, the “pulmonary systolic pressure upon rechallenge” value in series [3] (rechallenge after discontinuation) is recorded as “again dramatically decreased”. Also, in series [3] (upon infusion), the blood biochemistry result is given as “no changes”, the cardiac index entry is reported as “no changes”, the cardiac output result is on record as “no changes” and the peripheral vascular resistance result is listed as “no changes”. Besides, in series [3] (upon infusion), the right atrial pressure entry is recorded as “no changes” and the systemic blood pressure result was “no changes”. Besides, in series [3] (within two half-lives of the drug), the “period over which pulmonary pressure rose upon discontinuation of drug administration” value turned out to be 15 min. For the same compound, the IC50 at GRP receptor [4] worked out at 0.5 nM. In addition, the “increase of intracellular calcium concentration” value at GRP receptor [2] is listed as “no effect”. Besides, the “increase of intracellular calcium concentration by bombesin (10 nM) after pretreatment with antagonist” value at GRP receptor [2] (pretreated with BIM-26226 (10 nM)) is given as 300 nM. Further, the “reduction of bombesin-induced calcium increase versus bombesin alone” value on GRP receptor [2] (pretreated with BIM-26226 (10 nM), bombesin 10 nM) was 205 nM.
With “GRP: 27-amino acid peptide first isolated from the porcine gut (APVSVGGGTVLAKMYPRGNHWAVGHLM; ends and bridges not checked; UniProt P63153 24-50, looked up)”, the “in vivo pulmonary haemodynamic effect” value in the series with pulmonary haemodynamics is recorded as “neither bombesin nor GRP, under a wide range of experimental conditions, have any demonstrable in vivo pulmonary haemodynamic effect”.
In the case of `COc1ccc([C@@H]2Sc3ccccc3N(CCN(C)C)C(=O)[C@@H]2OC(C)=O)cc1` [diltiazem, reference compound], in series [3] (patient, before the BIM-26226 study), the “effect on pulmonary pressure (therapeutic trial)” value is given as “did not lower the pulmonary pressure”.
